How the values were obtained:
[1] = test system: patients with biopsy-confirmed NAFLD and type 2 diabetes; assay: Example 3 clinical trial: liver histology (biopsy) at 48 weeks; assay type: in vivo, human; details: 48 weeks
Excerpt: 1. The biopsy consistent with the diagnosis of NAFLD 2. Type 2 diabetes, HbA1c>=7.0% • Hepatic virus infections, autoimmune hepatitis, primary biliary cirrhosis, sclerosing cholangitis, haemochromatosis, antitrypsin deficiency, Wilsons disease, history of parenteral nutrition and use of drugs known to induce steatosis or hepatic injury caused by substance abuse and or the current or past consumption of more than 20 g of alcohol daily • Hypersensitivity to or contraindication of glimepiride and tofogliflozin • None type 2 diabetes • Poorly controlled diabetes • Repeated episodes of unexplained hypoglycemia • Concomitant infection or planned surgery • Poorly controlled hypertension • Severe retinopathy • Malignancy on an active therapeutic regimen or malignancy without complete remission or cure • Severe health problems not suitable for the study • Pregnant or lactating women • Inability to participate in the study as assessed by the investigators. A total of 40 patients were randomly assigned to receive once-daily tofogliflozin at a dose of 20 mg (20 patients) or to receive once-daily glimepiride (20 patients). All 40 patients (100%) completed the trial. Demographic and baseline clinical characteristics except for gender were similar in both groups. The patients were all Japanese and type 2 diabetes. The mean age was 53.9 years, the mean body weight 82.0 kg, the mean Hemoglobin A1c 8.2%, and the mean NAS 4.45. A total of 18 patients (45%) had stage F1 fibrosis, 11 (27.5%) had stage F2, and 5 (12.5%) had stage F3. A total of 40 patients were randomly assigned to receive once-daily tofogliflozin at a dose of 20 mg (20 patients) or to receive once-daily glimepiride (20 patients). All 40 patients (100%) completed the trial. Information for the primary and confirmatory secondary outcomes related to a biopsy at week 48 was available for 39 patients (97.5%). For only one patient with a serious adverse event (2.5%).

[2] = test system: LDL receptor knockout mice and KK-A mice fed with an MCD (methionine-choline-deficient) diet; details: cited from earlier work
adults with NAFLD [3] = assay: Example 1 clinical study: liver fat content by MRI-PDFF; assay type: in vivo, human; details: for Liver fat content by MRI-PDFF, Responder / Liver fat content by MRI-PDFF, percent change from baseline: pemafibrate 0.4 mg/day BID; for Liver fat content by MRI-PDFF, mean difference: pemafibrate vs placebo
Procedure: (§1) This was a placebo-controlled, randomized, double-blind, parallel-group, study in adults with NAFLD. Subjects were administered pemafibrate tablets (0.4 mg/day, BID) or placebo tablets for 72 weeks following a screening period of from 2 to 8 weeks. The primary endpoint was percent change from baseline in liver fat content, measured by MRI-PDFF at week 24. The key secondary endpoints were percent changes in liver stiffness and ALT levels from baseline to week 72 and 24, respectively. The study was conducted in compliance with relevant guidelines, GCP guidance, and the Declaration of Helsinki.
(§2) Patients with a hepatic fat fraction ≥10% on MRI-PDFF, liver stiffness (measured using magnetic resonance elastography, MRE)≥2.5 kPa and elevated ALT (>40 U/L for men, >30 U/L for women) were enrolled. Patients were excluded in case of body mass index (BMI)<22 kg/m^2, uncontrolled diabetes (HbA1c≥8%), impaired renal function (estimated glomerular filtration rate, eGFR, <30 mL·min^−1·1.73^−1·m^−2 or on dialysis), cirrhosis, biliary obstruction, or chronic liver diseases other than NAFLD.
(§3) Subjects took their assigned medication (pemafibrate 0.2 mg tablet or placebo) orally, one tablet, twice daily, for 72 weeks. Study visits were set every 4 weeks from the start of treatment to week 24 and every 8 weeks from week 24 onwards. Liver fat content and liver stiffness were measured at screening examinations that took place pre-randomization and subsequently at weeks 0, 24, 48, and 72.
(§4) All imaging assessment procedures were performed blinded. The equipment used in all facilities was standardized to a 3.0 T MR Imaging System (GE Healthcare, Little Chalfont, UK). As an application, IDEAL-IQ for MRI-PDFF and MR-touch for MRE were used. Detailed imaging conditions are described in the “Imaging Procedure Manual” and imaging procedures were standardized throughout all tests. Imaging was performed during fasting (≥4 h postprandial) and the timing of testing (pre-breakfast/post-breakfast to pre-lunch/post-lunch) was unified for each patient throughout the study.
(§5) The primary efficacy endpoint was percent change in hepatic fat content, as measured using MRI-PDFF. Liver stiffness measured using MRE was a secondary endpoint and similarly assessed percent change from baseline values. Other efficacy endpoints included liver function, fibrosis and inflammatory markers, and lipid markers.

adults with NAFLD [4] = assay: Example 1 clinical study: liver function (ALT, AST); assay type: in vivo, human; details: for ALT, percent change from baseline / AST, percent change from baseline: pemafibrate 0.4 mg/day BID; for ALT, mean difference / AST, mean difference: pemafibrate vs placebo
Procedure: as §1, §2, §3, §5

adults with NAFLD [5] = assay: Example 1 clinical study: liver stiffness by MRE; assay type: in vivo, human; details: for Liver stiffness by MRE, Responder / Liver stiffness by MRE, percent change from baseline: pemafibrate 0.4 mg/day BID; for Liver stiffness by MRE, mean difference: pemafibrate vs placebo
Procedure: as §1, §2, §3, §4, §5

[6] = reported by Ishibashi 2016; cited from earlier work
adults with NAFLD [7] = assay: Example 1 clinical study: lipids; assay type: in vivo, human; details: for HDL cholesterol, percent change from baseline / LDL cholesterol, percent change from baseline / Non-HDL cholesterol, percent change from baseline / Total cholesterol, percent change from baseline / Triglycerides, percent change from baseline: pemafibrate 0.4 mg/day BID; for HDL cholesterol, mean difference / LDL cholesterol, mean difference / Non-HDL cholesterol, mean difference / Total cholesterol, mean difference / Triglycerides, mean difference: pemafibrate vs placebo
Procedure: as §1, §2, §3, §5

CCC1=C(C)CN(C(=O)NCCc2ccc(S(=O)(=O)NC(=O)N[C@H]3CC[C@H](C)CC3)cc2)C1=O [glimepiride]
NAS compared with baseline values (in words) [1]: improved significantly
mean ballooning scores (in words) [1]: significantly reduced
histologic improvement from baseline to 48 weeks (in words) ([1]; once-daily treatment): the only histologic improvement from baseline to 48 weeks was a reduction in ballooning necrosis

(R)-2-[3-[[N-(benzoxazol-2-yl)-N-3-(4-methoxyphenoxy)propyl]aminomethyl]phenoxy]butyric acid [Pemafibrate]
ballooning of hepatocytes, fat deposition, number of Kupffer cells (in words) [2]: suppresses ballooning of hepatocytes and fat deposition and reduces the number of Kupffer cells
Liver fat content by MRI-PDFF, Responder (adults with NAFLD [3]; Week 24): 20.7 (12) %
Liver fat content by MRI-PDFF, percent change from baseline (adults with NAFLD [3]; Week 24): −5.28%
Liver fat content by MRI-PDFF, mean difference (adults with NAFLD [3]; Week 24): −1.04%
Liver fat content by MRI-PDFF, Responder (adults with NAFLD [3]; Week 48): 10.3 (6) %
Liver fat content by MRI-PDFF, percent change from baseline (adults with NAFLD [3]; Week 48): 0.50%
Liver fat content by MRI-PDFF, mean difference (adults with NAFLD [3]; Week 48): 1.03%
Liver fat content by MRI-PDFF, Responder (adults with NAFLD [3]; Week 72): 22.4 (13) %
Liver fat content by MRI-PDFF, percent change from baseline (adults with NAFLD [3]; Week 72): −4.88%
Liver fat content by MRI-PDFF, mean difference (adults with NAFLD [3]; Week 72): −5.10%
liver function as measured by ALT (in words) (adults with NAFLD [4]; Example 1 study, summary): significant improvements
ALT, percent change from baseline (adults with NAFLD [4]; Week 24): −39.53%
AST, percent change from baseline (adults with NAFLD [4]; Week 24): −9.21%
ALT, mean difference (adults with NAFLD [4]; Week 24): −27.08%
AST, mean difference (adults with NAFLD [4]; Week 24): −2.69%
ALT, percent change from baseline (adults with NAFLD [4]; Week 48): −42.53%
AST, percent change from baseline (adults with NAFLD [4]; Week 48): −9.75%
ALT, mean difference (adults with NAFLD [4]; Week 48): −26.75%
AST, mean difference (adults with NAFLD [4]; Week 48): −0.18%
ALT, percent change from baseline (adults with NAFLD [4]; Week 72): −43.84%
AST, percent change from baseline (adults with NAFLD [4]; Week 72): −9.61%
ALT, mean difference (adults with NAFLD [4]; Week 72): −33.60%
AST, mean difference (adults with NAFLD [4]; Week 72): −4.48%
liver stiffness when measured by MRE (in words) (adults with NAFLD [5]; Example 1 study, summary): significant improvements
Liver stiffness by MRE, Responder (adults with NAFLD [5]; Week 24): 19.0 (11) %
Liver stiffness by MRE, percent change from baseline (adults with NAFLD [5]; Week 24): −5.03%
Liver stiffness by MRE, mean difference (adults with NAFLD [5]; Week 24): −4.38%
Liver stiffness by MRE, Responder (adults with NAFLD [5]; Week 48): 37.9 (22) %
Liver stiffness by MRE, percent change from baseline (adults with NAFLD [5]; Week 48): −9.01%
Liver stiffness by MRE, mean difference (adults with NAFLD [5]; Week 48): −5.68%
Liver stiffness by MRE, Responder (adults with NAFLD [5]; Week 72): 25.9 (15) %
Liver stiffness by MRE, percent change from baseline (adults with NAFLD [5]; Week 72): −7.27%
Liver stiffness by MRE, mean difference (adults with NAFLD [5]; Week 72): −6.15%
ALT concentrations (in words) [6]: much more modest decrease
LDL cholesterol (in words) [6]: increase
total cholesterol (in words) [6]: modest decrease
HDL cholesterol (in words) (adults with NAFLD [7]; Example 1 study, summary): significant reductions
LDL cholesterol (in words) (adults with NAFLD [7]; Example 1 study, summary): significant reductions
total cholesterol (in words) (adults with NAFLD [7]; Example 1 study, summary): significant reductions
HDL cholesterol, percent change from baseline (adults with NAFLD [7]; Week 24): −1.68%
LDL cholesterol, percent change from baseline (adults with NAFLD [7]; Week 24): −14.72%
Non-HDL cholesterol, percent change from baseline (adults with NAFLD [7]; Week 24): −13.82%
Total cholesterol, percent change from baseline (adults with NAFLD [7]; Week 24): −11.19%
Triglycerides, percent change from baseline (adults with NAFLD [7]; Week 24): −34.60%
HDL cholesterol, mean difference (adults with NAFLD [7]; Week 24): −7.57%
LDL cholesterol, mean difference (adults with NAFLD [7]; Week 24): −13.66%
Non-HDL cholesterol, mean difference (adults with NAFLD [7]; Week 24): −12.82%
Total cholesterol, mean difference (adults with NAFLD [7]; Week 24): −11.55%
Triglycerides, mean difference (adults with NAFLD [7]; Week 24): −31.11%
HDL cholesterol, percent change from baseline (adults with NAFLD [7]; Week 48): −6.40%
LDL cholesterol, percent change from baseline (adults with NAFLD [7]; Week 48): −14.22%
Non-HDL cholesterol, percent change from baseline (adults with NAFLD [7]; Week 48): −12.95%
Total cholesterol, percent change from baseline (adults with NAFLD [7]; Week 48): −11.55%
Triglycerides, percent change from baseline (adults with NAFLD [7]; Week 48): −27.11%
HDL cholesterol, mean difference (adults with NAFLD [7]; Week 48): −10.24%
LDL cholesterol, mean difference (adults with NAFLD [7]; Week 48): −16.37%
Non-HDL cholesterol, mean difference (adults with NAFLD [7]; Week 48): −14.24%
Total cholesterol, mean difference (adults with NAFLD [7]; Week 48): −13.19%
Triglycerides, mean difference (adults with NAFLD [7]; Week 48): −25.77%
HDL cholesterol, percent change from baseline (adults with NAFLD [7]; Week 72): −7.38%
LDL cholesterol, percent change from baseline (adults with NAFLD [7]; Week 72): −12.48%
Non-HDL cholesterol, percent change from baseline (adults with NAFLD [7]; Week 72): −11.92%
Total cholesterol, percent change from baseline (adults with NAFLD [7]; Week 72): −11.12%
Triglycerides, percent change from baseline (adults with NAFLD [7]; Week 72): −31.55%
HDL cholesterol, mean difference (adults with NAFLD [7]; Week 72): −11.86%
LDL cholesterol, mean difference (adults with NAFLD [7]; Week 72): −15.14%
Non-HDL cholesterol, mean difference (adults with NAFLD [7]; Week 72): −15.77%
Total cholesterol, mean difference (adults with NAFLD [7]; Week 72): −14.86%
Triglycerides, mean difference (adults with NAFLD [7]; Week 72): −32.67%
